The text below walks through data of US10874631B2, “Altertoxin II as a selective inhibitor of Ewing family of tumor cells” (priority 2016, dated 2020).

Each structure is given as a SMILES string.

This data set concerns Ewing sarcoma cells. As to the kind of experiment: Panel of 5 pediatric cancer cell lines, selective cytotoxicity. It is filed as cell-based. The following applies: 5 types of solid pediatric cancers.

On to `O=C1C[C@H](O)[C@@H]2c3c(ccc(O)c31)-c1ccc(O)c3c1[C@@]2(O)CCC3=O` [Altertoxin I, altertoxin I], for which the “selective cytotoxic activity against Ewing sarcoma cells” value is “did not show selective cytotoxic activity”.
